Assay results published in ChEMBL document CHEMBL1158657, “Improved antitumor activity by modification of nogalamycin” (1979).
Values after ≈ are worked out from the molar mass of the structure shown. Active and inactive are the calls of the source. The calls are words filed in the database; no cut-off is given here.

Tests used:
Type in all cases: functional
P388 [1] = test: Antitumor activity against mouse P388 cells xenografted in mouse assessed as increase in life span at 3.13 mg/kg/day, iv after 9 days
L1210 [2] = test: Inhibition of DNA synthesis in mouse L1210 cells; details: read-out: ID50 (the source's name)
P388 [3] = test: Antitumor activity against mouse P388 cells xenografted in mouse assessed as increase in life span at 6.25 mg/kg/day, iv after 9 days
B16 [4] = test: Antitumor activity against mouse B16 cells xenografted in mouse assessed as increase in life span at 12.5 mg/kg/day, ip after 9 days; details: route intraperitoneal
P388 [5] = test: Antitumor activity against mouse P388 cells xenografted in mouse assessed as increase in life span at 6.25 mg/kg/day, ip after 9 days; details: route intraperitoneal
[6] = Antitumor activity against mouse CD8F1 cells xenografted in mouse assessed as increase in life span at 25 mg/kg, sc Q7D after 5 days; details: route subcutaneous
[7] = test system: Lewis lung carcinoma cell line; test: Antitumor activity against mouse LLC cells xenografted in mouse assessed as increase in life span at 12.5 mg/kg/day, ip after 9 days; details: route intraperitoneal
P388 [8] = test: Antitumor activity against mouse P388 cells xenografted in mouse assessed as increase in life span at 12.5 mg/kg/day, iv after 9 days
L1210 [9] = test: Inhibition of RNA synthesis in mouse L1210 cells; details: read-out: ID50 (the source's name)
MC-38 = test: Antitumor activity against mouse Colon 38 cells xenografted in mouse assessed as increase in life span at 25 mg/kg, sc Q7D after 2 days; details: route subcutaneous
B16 [10] = test: Antitumor activity against mouse B16 cells xenografted in mouse assessed as increase in life span at 5 mg/kg/day, ip after 9 days; details: route intraperitoneal
Colon 26 = test: Antitumor activity against mouse Colon 26 cells xenografted in mouse assessed as increase in life span at 25 mg/kg, ip Q4D after 2 days; details: route intraperitoneal
L1210 [11] = test: Antitumor activity against mouse L1210 cells xenografted in mouse assessed as increase in life span at 12.5 mg/kg/day, ip after 9 days; details: route intraperitoneal
L1210 [12] = test: Inhibition of RNA synthesis in mouse L1210 cells at 10 nmole/ml
L1210 [13] = test: Antitumor activity against mouse L1210 cells xenografted in mouse assessed as increase in life span at 3.13 mg/kg/day, ip after 9 days; details: route intraperitoneal
P388 [14] = test: Antitumor activity against mouse P388 cells xenografted in mouse assessed as increase in life span at 12.5 mg/kg/day, po after 9 days
P388 [15] = test: Antitumor activity against mouse P388 cells xenografted in mouse assessed as increase in life span at 3.13 mg/kg/day, ip after 9 days; details: route intraperitoneal
B16 [16] = test: Antitumor activity against mouse B16 cells xenografted in mouse assessed as increase in life span at 6 to 12 mg/kg/day, ip after 9 days; details: route intraperitoneal
L1210 [17] = test: Antitumor activity against mouse L1210 cells xenografted in mouse assessed as increase in life span at 6.25 mg/kg/day, ip after 9 days; details: route intraperitoneal
B16 [18] = test: Antitumor activity against mouse B16 cells xenografted in mouse assessed as increase in life span at 10 mg/kg/day, ip after 9 days; details: route intraperitoneal
B16 [19] = test: Antitumor activity against mouse B16 cells xenografted in mouse assessed as increase in life span at 2.5 mg/kg/day, ip after 9 days; details: route intraperitoneal
B16 [20] = test: Antitumor activity against mouse B16 cells xenografted in mouse assessed as increase in life span at 20 mg/kg/day, ip after 9 days; details: route intraperitoneal
L1210 [21] = test: Cytotoxicity against mouse L1210 cells; details: Mus musculus, L1210, read-out: ID50
P388 [22] = test: Antitumor activity against mouse P388 cells xenografted in mouse assessed as increase in life span at 12.5 mg/kg/day, ip after 9 days; details: route intraperitoneal
P388 [23] = test: Antitumor activity against mouse P388 cells xenografted in mouse assessed as increase in life span at 0.25 mg/kg/day, iv after 9 days
P388 [24] = test: Antitumor activity against mouse P388 cells xenografted in mouse assessed as increase in life span at 0.25 mg/kg/day, ip after 9 days; details: route intraperitoneal
P388 [25] = test: Antitumor activity against mouse P388 cells xenografted in mouse assessed as increase in life span at 0.5 mg/kg/day, iv after 9 days
B16 [26] = test: Antitumor activity against mouse B16 cells xenografted in mouse assessed as increase in life span at 1 mg/kg/day, ip after 9 days; details: route intraperitoneal
B16 [27] = test: Antitumor activity against mouse B16 cells xenografted in mouse assessed as increase in life span at 2 mg/kg/day, ip after 9 days; details: route intraperitoneal
B16 [28] = test: Antitumor activity against mouse B16 cells xenografted in mouse assessed as increase in life span at 0.25 mg/kg/day, ip after 9 days; details: route intraperitoneal
B16 [29] = test: Antitumor activity against mouse B16 cells xenografted in mouse assessed as increase in life span at 0.5 mg/kg/day, ip after 9 days; details: route intraperitoneal
L1210 [30] = test: Antitumor activity against mouse L1210 cells xenografted in mouse assessed as increase in life span at 1 mg/kg/day, ip after 9 days; details: route intraperitoneal
P388 [31] = test: Antitumor activity against mouse P388 cells xenografted in mouse assessed as increase in life span at 1 mg/kg/day, ip after 9 days; details: route intraperitoneal
P388 [32] = test: Antitumor activity against mouse P388 cells xenografted in mouse assessed as increase in life span at 2 mg/kg/day, iv after 9 days
P388 [33] = test: Antitumor activity against mouse P388 cells xenografted in mouse assessed as increase in life span at 2 mg/kg/day, ip after 9 days; details: route intraperitoneal
L1210 [34] = test: Antitumor activity against mouse L1210 cells xenografted in mouse assessed as increase in life span at 2 mg/kg/day, ip after 9 days; details: route intraperitoneal
P388 [35] = test: Antitumor activity against mouse P388 cells xenografted in mouse assessed as increase in life span at 1 mg/kg/day, iv after 9 days
L1210 [36] = test: Antitumor activity against mouse L1210 cells xenografted in mouse assessed as increase in life span at 0.5 mg/kg/day, ip after 9 days; details: route intraperitoneal
L1210 [37] = test: Antitumor activity against mouse L1210 cells xenografted in mouse assessed as increase in life span at 0.25 mg/kg/day, ip after 9 days; details: route intraperitoneal
P388 [38] = test: Antitumor activity against mouse P388 cells xenografted in mouse assessed as increase in life span at 0.5 mg/kg/day, ip after 9 days; details: route intraperitoneal

CO[C@H]1C[C@@](C)(O)Cc2cc3c(c(O)c21)C(=O)c1c(O)cc2c(c1C3=O)O[C@@H]1O[C@@]2(C)[C@H](O)[C@@H](N(C)C)[C@@H]1O
Activity (P388 [1]): 25% | IC50 (L1210 [2]): > 46 µM | Activity (P388 [3]): 53% | Activity (B16 [4]): 109% | Activity (P388 [5]): 111% | Activity [6]: 1% | Activity [7]: 38% | Activity (P388 [8]): 187% | IC50 (L1210 [9]): > 46 µM | Activity (MC-38): 21% | Activity (B16 [10]): 88% | Activity (Colon 26): 106% | Activity (L1210 [11]): 140% | inhibition (INH) (L1210 [12]): 0% | Activity (L1210 [13]): 42% | Activity (P388 [14]): 48% | Activity (P388 [15]): 61% | Activity (B16 [16]): 77% | Activity (L1210 [17]): 55% | Activity (B16 [18]): 114% | Activity (B16 [19]): 64% | Activity (B16 [20]): -9% | IC50 (L1210 [21]): 0.061 µg/mL (≈ 0.113 µM) | Activity (P388 [22]): 197%

COc1cccc2c1C(=O)c1c(O)c3c(c(O)c1C2=O)C[C@@](O)(C(=O)CO)C[C@@H]3O[C@H]1C[C@H](N)[C@H](O)[C@H](C)O1 [DOXORUBICIN]
Activity (P388 [23]): 8% | Activity (P388 [24]): 61% | Activity (P388 [25]): 3% | Activity (B16 [26]): 166% | Activity (B16 [27]): 158% | Activity (B16 [28]): 127% | Activity (B16 [29]): 160% | Activity (L1210 [30]): 38% | Activity (P388 [31]): 158% | Activity (P388 [32]): 29% | Activity (P388 [33]): 7% | Activity (P388 [14]): inactive | Activity (L1210 [34]): 40% | Activity (P388 [35]): 10% | Activity (L1210 [36]): 29% | Activity (L1210 [37]): 20% | Activity (P388 [38]): 137%
